Laboratory results as given in ChEMBL document CHEMBL3875185, “Structure-anticonvulsant activity studies in the group of (E)-N-cinnamoyl aminoalkanols derivatives monosubstituted in phenyl ring with 4-Cl, 4-CH3 or 2-CH3” (Bioorg Med Chem, 2017).
The source made the active and inactive calls. No cut-off for these calls is given here.

Tests used:
Mus musculus [1] = test: Anticonvulsant activity in ip dosed 6-Hz induced seizure mouse model assessed as restoration of normal activity within 10 secs from stimulation at 44 mA; assay type: functional
Mus musculus [2] = test: Anticonvulsant activity in ip dosed pentylenetetrazole induced seizure mouse model; assay type: functional
Rattus norvegicus [3] = test: Anticonvulsant activity in po dosed pentylenetetrazole induced seizure rat model; assay type: functional
Mus musculus [4] = test: Anticonvulsant activity in ip dosed maximal electroshock induced seizure mouse model assessed as suppression in hindlimb tonic extension by measuring time to peak effect; assay type: functional
Rattus norvegicus [5] = test: Neurotoxicity in Sprague-Dawley rat assessed as behavioral change at 30 mg/kg, po measured at […] post dose; assay type: toxicity, organism-based; conditions: in vivo
Mus musculus [6] = test: Anticonvulsant activity in maximal electroshock induced seizure mouse model assessed as suppression in hindlimb tonic extension at 30 mg/kg, ip measured at 4 hrs post dose; assay type: functional, organism-based
Mus musculus [7] = test: Anticonvulsant activity in maximal electroshock induced seizure mouse model assessed as suppression in hindlimb tonic extension at 100 mg/kg, ip measured at 4 hrs post dose; assay type: functional, organism-based
Mus musculus [8] = test: Anticonvulsant activity in maximal electroshock induced seizure mouse model assessed as suppression in hindlimb tonic extension at 300 mg/kg, ip measured at 4 hrs post dose; assay type: functional, organism-based
Mus musculus [9] = test: Neurotoxicity in mouse assessed as induction of motor impairment at 30 mg/kg, ip measured at 0.5 hrs post dose by rotarod method; assay type: toxicity, organism-based; conditions: in vivo
Mus musculus [10] = test: Neurotoxicity in mouse assessed as induction of motor impairment at 30 mg/kg, ip measured at 4 hrs post dose by rotarod method; assay type: toxicity, organism-based; conditions: in vivo
Mus musculus [11] = test: Neurotoxicity in mouse assessed as induction of motor impairment at 300 mg/kg, ip measured at 4 hrs post dose by rotarod method; assay type: toxicity, organism-based; conditions: in vivo
Mus musculus [12] = test: Anticonvulsant activity in 6-Hz induced seizure mouse model assessed as restoration of normal activity within 10 secs from stimulation at 100 mg/kg, ip at 32 mA measured at 4 hrs post dose; assay type: functional, organism-based
Rattus norvegicus [13] = test: Anticonvulsant activity in maximal electroshock induced seizure Sprague-Dawley rat model assessed as suppression in hindlimb tonic extension at 30 mg/kg, po measured at 2 hrs post dose; assay type: functional, organism-based
Rattus norvegicus [14] = test: Neurotoxicity in Sprague-Dawley rat assessed as behavioral change at 30 mg/kg, po measured at 1 hr post dose; assay type: toxicity, organism-based; conditions: in vivo
Rattus norvegicus [15] = test: Neurotoxicity in Sprague-Dawley rat assessed as behavioral change at 30 mg/kg, po measured at 0.5 hrs post dose; assay type: toxicity, organism-based; conditions: in vivo
Rattus norvegicus [16] = test: Neurotoxicity in Sprague-Dawley rat assessed as behavioral change at 30 mg/kg, po measured at 2 hrs post dose; assay type: toxicity, organism-based; conditions: in vivo
Rattus norvegicus [17] = test: Neurotoxicity in Sprague-Dawley rat assessed as behavioral change at 30 mg/kg, po measured at 4 hrs post dose; assay type: toxicity, organism-based; conditions: in vivo
Rattus norvegicus [18] = test: Neurotoxicity in Sprague-Dawley rat assessed as behavioral change at 30 mg/kg, ip measured at […] post dose; assay type: toxicity, organism-based; conditions: in vivo
Rattus norvegicus [19] = test: Neurotoxicity in Sprague-Dawley rat assessed as behavioral change at 30 mg/kg, ip measured at 0.5 hrs post dose; assay type: toxicity, organism-based; conditions: in vivo
Rattus norvegicus [20] = test: Neurotoxicity in Sprague-Dawley rat assessed as behavioral change at 30 mg/kg, ip measured at 1 hr post dose; assay type: toxicity, organism-based; conditions: in vivo
Rattus norvegicus [21] = test: Neurotoxicity in Sprague-Dawley rat assessed as behavioral change at 30 mg/kg, ip measured at 2 hrs post dose; assay type: toxicity, organism-based; conditions: in vivo
Rattus norvegicus [22] = test: Neurotoxicity in Sprague-Dawley rat assessed as behavioral change at 30 mg/kg, ip measured at 4 hrs post dose; assay type: toxicity, organism-based; conditions: in vivo
Mus musculus [23] = test: Anticonvulsant activity in ip dosed pentylenetetrazole induced seizure mouse model assessed as no observable episode of clonic convulsion of at least 5 secs by measuring time to peak effect; assay type: functional
Mus musculus [24] = test: Neurotoxicity in ip dosed mouse assessed as induction of motor impairment by measuring time to peak effect by rotarod method; assay type: toxicity, organism-based; conditions: in vivo
Mus musculus [25] = test: Anticonvulsant activity in ip dosed maximal electroshock induced seizure mouse model assessed as suppression in hindlimb tonic extension; assay type: functional
Mus musculus [26] = test: Anticonvulsant activity in ip dosed pentylenetetrazole induced seizure mouse model assessed as no observable episode of clonic convulsion of at least 5 secs; assay type: functional
[27] = Neurotoxicity in ip dosed mouse; assay type: toxicity, organism-based; conditions: in vivo
[28] = Protection index, ratio of TD50 for neurotoxicity in ip dosed mouse to ED50 for ip dosed maximal electroshock induced seizure mouse model; assay type: toxicity, organism-based; conditions: in vivo, read-out: Ratio TD50/ED50
[29] = Protection index, ratio of TD50 for neurotoxicity in ip dosed mouse to ED50 for ip dosed pentylenetetrazole induced seizure mouse model; assay type: toxicity, organism-based; conditions: in vivo, read-out: Ratio TD50/ED50
[30] = Displacement of [3H]batrachotoxinin from rat cerebral cortex sodium channel site 2 measured after 60 mins by scintillation counting method
[31] = molecular target: Vasoactive intestinal polypeptide receptor 1 (Homo sapiens, UniProt P32241); test: Displacement of [125I]VIP from human recombinant VPAC1 receptor expressed in CHO cells measured after 60 mins by scintillation counting method; assay type: cell-based
Chain of Vasoactive intestinal polypeptide receptor 1 (P32241 whole entry): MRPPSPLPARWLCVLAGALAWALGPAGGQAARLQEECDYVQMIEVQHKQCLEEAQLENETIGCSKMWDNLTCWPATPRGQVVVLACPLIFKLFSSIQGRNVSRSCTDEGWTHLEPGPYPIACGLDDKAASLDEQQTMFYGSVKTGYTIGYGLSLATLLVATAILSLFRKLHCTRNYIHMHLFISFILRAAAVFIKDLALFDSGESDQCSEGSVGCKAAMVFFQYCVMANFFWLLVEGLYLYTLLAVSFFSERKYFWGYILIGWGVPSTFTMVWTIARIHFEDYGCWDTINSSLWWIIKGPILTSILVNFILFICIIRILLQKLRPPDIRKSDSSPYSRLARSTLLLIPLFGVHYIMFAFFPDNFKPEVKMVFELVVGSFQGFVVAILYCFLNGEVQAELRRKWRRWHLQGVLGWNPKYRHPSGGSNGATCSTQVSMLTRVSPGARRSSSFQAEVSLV

[32] = Displacement of [35S]TBPS from rat cerebral cortex GABA-gated chloride channel measured after 60 mins by scintillation counting method
[33] = Displacement of [35S]dATPaS from rat cerebral cortex P2Y receptor measured after 60 mins by scintillation counting method
[34] = Displacement of [3H]TCP from rat cerebral cortex phencyclidine receptor measured after 120 mins by scintillation counting method
[35] = Displacement of [3H]D888 from rat cerebral cortex calcium channel L type verapamil binding site measured after 120 mins by scintillation counting method
[36] = Displacement of [3H]a,b-MeATP from rat urinary bladder P2X receptor measured after 120 mins by scintillation counting method
[37] = Displacement of [125I]Tyr11-somatostatin-14 from Sst receptor in mouse AtT-20 cells measured after 60 mins by scintillation counting method; assay type: cell-based; conditions: att20

## CCCC(CCC)C(=O)O [VALPROIC ACID]
Mus musculus [1]
  ED50: 310 mg/kg
Mus musculus [2]
  ED50: 220 mg/kg
Rattus norvegicus [3]
  ED50: 646 mg/kg

## O=C(/C=C/c1ccc(Cl)cc1)N[C@H]1CC[C@H](O)CC1
Mus musculus [4]
  Time: 2 h
Rattus norvegicus [5]
  Activity: Non-Toxic
Mus musculus [6]
  Activity: Active
Mus musculus [7]
  Activity: Active
Mus musculus [8]
  Activity: Active
Mus musculus [9]
  Activity: Non-Toxic
Mus musculus [10]
  Activity: Non-Toxic
Mus musculus [11]
  Activity: Non-Toxic
Mus musculus [12]
  Activity: Active
Rattus norvegicus [13]
  Activity: Active
Rattus norvegicus [14]
  Activity: Non-Toxic
Rattus norvegicus [15]
  Activity: Non-Toxic
Rattus norvegicus [16]
  Activity: Non-Toxic
Rattus norvegicus [17]
  Activity: Non-Toxic
Rattus norvegicus [18]
  Activity: Non-Toxic
Rattus norvegicus [19]
  Activity: Non-Toxic
Rattus norvegicus [20]
  Activity: Non-Toxic
Rattus norvegicus [21]
  Activity: Non-Toxic
Rattus norvegicus [22]
  Activity: Non-Toxic
Mus musculus [23]
  Time: 2 h
Mus musculus [24]
  Time: 6 h
Mus musculus [25]
  ED50: 186 mg/kg
Mus musculus [26]
  ED50: 317 mg/kg
[27]
  TD50: > 600 mg/kg
[28]
  selectivity ratio: > 3.22
[29]
  selectivity ratio: > 1.9

## COc1ccc(C(=O)O[C@H]2CC[C@@]3(C)[C@H]4CC[C@H]5[C@]6(O)C[C@H](O)[C@@]7(O)[C@@H](CN8C[C@@H](C)CC[C@H]8[C@@]7(C)O)[C@]6(O)C[C@@]53O[C@@]24O)cc1OC
[30]
  IC50: 4000 nM

## H-HSDAVFTDNYTRLRKQLAVKKYLNSILN-NH2
[31]
  IC50: 0.11 nM

## C=C(C)[C@@H]1[C@H]2OC(=O)[C@@H]1[C@]1(O)C[C@H]3O[C@]34C(=O)O[C@H]2[C@]14C [PICROTOXININ]
[32]
  IC50: 77 nM

## Nc1ncnc2c1ncn2[C@H]1C[C@H](O)[C@@H](COP(O)(=S)OP(=O)(O)OP(=O)(O)O)O1 (some centres not stated)
[33]
  IC50: 29 nM

## C[C@]12N[C@H](Cc3ccccc31)c1ccccc12 [DIZOCILPINE]
[34]
  IC50: 4.6 nM

## COc1ccc(CCN(C)CCCC(C#N)(c2cc(OC)c(OC)c(OC)c2)C(C)C)cc1OC (configuration not stated) [GALLOPAMIL]
[35]
  IC50: 15 nM

## Nc1ncnc2c1ncn2[C@@H]1O[C@H](COP(=O)(O)CP(=O)(O)OP(=O)(O)O)[C@@H](O)[C@H]1O [DIPHOSPHOMETHYLPHOSPHONIC ACID ADENOSYL ESTER]
[36]
  IC50: 1.9 nM

## C[C@H](N)C(=O)NCC(=O)N[C@H]1CSSC[C@@H](C(=O)O)NC(=O)[C@H](CO)NC(=O)[C@H]([C@@H](C)O)NC(=O)[C@H](Cc2ccccc2)NC(=O)[C@H]([C@@H](C)O)NC(=O)[C@H](CCCCN)NC(=O)[C@H](Cc2c[nH]c3ccccc23)NC(=O)[C@H](Cc2ccccc2)NC(=O)[C@H](Cc2ccccc2)NC(=O)[C@H](CC(N)=O)NC(=O)[C@H](CCCCN)NC1=O [SOMATOSTATIN]
[37]
  IC50: 0.074 nM
